Experimental data taken from ChEMBL document CHEMBL2413021, “Regioselective synthesis of 6-aryl-benzo[h][1,2,4]-triazolo[5,1-b]quinazoline-7,8-diones as potent antitumoral agents” (Bioorg Med Chem Lett, 2013).

Tests used:
HepG2 = test: Cytotoxicity against human HepG2 cells after 48 hrs by MTT assay; format: functional, cell-based; details: HepG2, 48 h
SGC-7901 = test: Cytotoxicity against human SGC7901 cells after 48 hrs by MTT assay; format: functional, cell-based; details: SGC-7901, 48 h

Structure (SMILES): COc1cc(-c2c3c(nc4ncnn24)-c2ccccc2C(=O)C3=O)cc(OC)c1OC
- IC50 (HepG2): 17.9 µM
- IC50 (SGC-7901): 59.2 µM

Structure (SMILES): O=C1C(=O)c2c(nc3ncnn3c2-c2cccc([N+](=O)[O-])c2)-c2ccccc21
- IC50 (HepG2): 15.3 µM
- IC50 (SGC-7901): 9.88 µM

Structure (SMILES): Clc1ccc(-c2c3c(nc4ncnn24)c2ccccc2c2nc4ccccc4nc23)cc1
- IC50 (HepG2): > 200 µM
- IC50 (SGC-7901): > 200 µM

Structure (SMILES): COc1cccc2c1C(=O)c1c(O)c3c(c(O)c1C2=O)C[C@@](O)(C(=O)CO)C[C@@H]3O[C@H]1C[C@H](N)[C@H](O)[C@H](C)O1 [DOXORUBICIN]
- IC50 (HepG2): 1.02 µM
- IC50 (SGC-7901): 5.72 µM

Structure (SMILES): O=C1C(=O)c2c(nc3ncnn3c2-c2ccc(F)cc2)-c2ccccc21
- IC50 (HepG2): 7.85 µM
- IC50 (SGC-7901): 6.12 µM

Structure (SMILES): COc1ccc(-c2c3c(nc4ncnn24)-c2ccccc2C(=O)C3=O)cc1
- IC50 (HepG2): 1.71 µM
- IC50 (SGC-7901): 1.31 µM

Structure (SMILES): O=C1C(=O)c2c(nc3ncnn3c2-c2cccs2)-c2ccccc21
- IC50 (HepG2): 2.13 µM
- IC50 (SGC-7901): 1.45 µM

Structure (SMILES): Cc1ccc(-c2c3c(nc4ncnn24)-c2ccccc2C(=O)C3=O)cc1
- IC50 (HepG2): 1.19 µM
- IC50 (SGC-7901): 1.71 µM

Structure (SMILES): O=C1C(=O)c2c(nc3ncnn3c2-c2ccc(Cl)cc2Cl)-c2ccccc21
- IC50 (HepG2): 2.99 µM
- IC50 (SGC-7901): 1.83 µM

Structure (SMILES): O=C1C(=O)c2c(nc3ncnn3c2-c2ccccc2)-c2ccccc21
- IC50 (HepG2): 3.45 µM
- IC50 (SGC-7901): 2.16 µM

Structure (SMILES): O=C1C(=O)c2c(nc3ncnn3c2-c2ccc(Cl)cc2)-c2ccccc21
- IC50 (HepG2): 24.9 µM
- IC50 (SGC-7901): 34.9 µM

Structure (SMILES): O=C1C(=O)c2c(nc3ncnn3c2-c2ccc([N+](=O)[O-])cc2)-c2ccccc21
- IC50 (HepG2): 4.74 µM
- IC50 (SGC-7901): 2.65 µM
